Data published in paper PMC10613692, “Central and peripheral analgesic active components of triterpenoid saponins from Stauntonia chinensis and their action mechanism” (Frontiers in Pharmacology, 2023).

Assays:
Format in all cases: cell-based
[1] = target: T1, transient receptor potential vanilloid 1 (TRPV1) (Rattus norvegicus, UniProt O35433); assay: whole-cell patch clamp of capsaicin-induced TRPV1 currents in rat DRG neurons; capsaicin concentration curves with and without C9
T1 construct: native channel in rat DRG neurons
T1 sequence (O35433 whole entry): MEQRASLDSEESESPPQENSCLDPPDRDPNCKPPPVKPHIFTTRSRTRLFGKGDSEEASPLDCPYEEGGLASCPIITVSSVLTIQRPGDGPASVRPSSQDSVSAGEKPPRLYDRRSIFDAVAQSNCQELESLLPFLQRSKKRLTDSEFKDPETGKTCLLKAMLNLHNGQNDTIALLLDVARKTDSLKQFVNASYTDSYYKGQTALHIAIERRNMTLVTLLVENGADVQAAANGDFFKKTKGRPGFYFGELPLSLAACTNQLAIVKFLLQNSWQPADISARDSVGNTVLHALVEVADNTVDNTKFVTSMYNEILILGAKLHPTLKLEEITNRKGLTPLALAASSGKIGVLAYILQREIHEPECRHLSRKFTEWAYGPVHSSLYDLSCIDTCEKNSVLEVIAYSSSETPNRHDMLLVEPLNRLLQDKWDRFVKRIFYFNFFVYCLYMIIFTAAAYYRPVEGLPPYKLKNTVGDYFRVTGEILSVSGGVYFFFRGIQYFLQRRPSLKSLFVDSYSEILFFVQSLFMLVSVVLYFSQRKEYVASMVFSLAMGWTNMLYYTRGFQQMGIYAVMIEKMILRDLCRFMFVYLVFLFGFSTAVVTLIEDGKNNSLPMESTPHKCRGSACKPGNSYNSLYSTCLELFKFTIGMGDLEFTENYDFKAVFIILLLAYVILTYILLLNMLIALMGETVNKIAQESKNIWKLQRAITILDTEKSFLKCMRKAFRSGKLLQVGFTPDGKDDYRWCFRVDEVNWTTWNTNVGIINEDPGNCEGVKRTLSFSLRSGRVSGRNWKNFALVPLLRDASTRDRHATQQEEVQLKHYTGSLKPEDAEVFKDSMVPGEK
Text: whole-cell patch clamp of capsaicin-induced TRPV1 currents in rat DRG neurons; capsaicin concentration curves with and without C9 on transient receptor potential vanilloid 1 (TRPV1) | Concentration dependence curve of the inhibition on CAP-induced TRPV1 currents of C9.

[2] = target: T1, transient receptor potential vanilloid 1 (TRPV1); assay: whole-cell patch clamp in rat DRG neurons, capsaicin concentration-response ([…])
[3] = target: T1, transient receptor potential vanilloid 1 (TRPV1); assay: whole-cell patch clamp of capsaicin-induced currents in rat DRG neurons, single concentration ([…])

## C[C@@H]1O[C@@H](O[C@H]2[C@H](O)[C@@H](O)[C@H](OC[C@H]3O[C@@H](OC(=O)[C@]45CCC(C)(C)C[C@H]4C4=CC[C@@H]6[C@@]7(C)CC[C@H](O[C@@H]8OC[C@H](O)[C@H](O)[C@H]8O)[C@@](C)(CO)[C@@H]7CC[C@@]6(C)[C@]4(C)CC5)[C@H](O)[C@@H](O)[C@@H]3O)O[C@@H]2CO)[C@H](O)[C@H](O)[C@H]1O [Compound 9, hederasaponin D]
[1]
  EC50: 36.9 ± 4.4 nM

## COc1cc(CNC(=O)CCCC/C=C/C(C)C)ccc1O [capsaicin]
[2]
  whole-cell patch clamp in rat DRG neurons, capsaicin concentration-response (0.0): Concentration dependent curves of TRPV1 currents induced by CAP in the presence or absence of C9.

## Oc1cc2c(cc1O)CN(C(=S)NCCc1ccc(Cl)cc1)CCC2 [capsazepine]
[3]
  whole-cell patch clamp of capsaicin-induced currents in rat DRG neurons, single: The recorded current was almost completely suppressed by capsazepine (CPZ), proving that it was the CAP-induced TRPV1 current.
